Test results reported in patent publication US5223526A, “Pyrazole carboxanilide fungicides and use” (Monsanto Company, priority 1992, dated 1993).

How the values were obtained:
[1] = molecular target: T1, succinate dehydrogenase (Botrytis cinerea, UniProt A0A384J5E4+A0A384J8V8+A0A384JHJ5); assay: Enzyme inhibition: succinate dehydrogenase activity in Botrytis cinerea mitochondria (DCPIP reduction); assay type: biochemical; details: concentration required to inhibit the rate of DCPIP reduction by 50%; Botrytis cinerea isolate Nick mitochondria; read-out: I50 (μM conc.)
T1 construct: succinate-DCPIP reductase assay with KCN
How it was run: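 Crude mitochondria from Botrytis cinerea isolate Nick mycelia, prepared by bead-beating and differential centrifugation, started reactions. SDH activity followed as DCPIP reduction at 600 nm in 50 mM K-phosphate pH 7.2 with 1 mM KCN, 45 μM DCPIP, 17 mM succinate, 1% acetone. I50 from semilog inhibition plots, corrected for succinate-free rates.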

[2] = test system: Rhizoctonia solani; assay: Rice sheath blight; assay type: in vivo; set-up: scale not given here; details: inoculated two days later, rated after 7 days, average of five plants; for Disease Control Rating at 0.5 mg/mL: foliage and soil sprayed with 0.5 mg/mL; for Disease Control Rating at 0.02 mg/mL: foliage and soil sprayed with 0.02 mg/mL; for Disease Control Rating at 0.1 mg/mL: foliage and soil sprayed with 0.1 mg/mL
How it was run: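 Rice plants 11–15 days old had foliage and soil sprayed with 0.5, 0.1 or 0.02 mg/mL Compound A in water/acetone/Tween 20, then kept in flooded trays. Two days later, rice-grain Rhizoctonia solani inoculum went to plant bases; disease control scored versus untreated after 7 days at 25 °C, high humidity, averaging five plants.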

[3] = test system: Botrytis cinerea; assay: Eggplant grey mold; assay type: in vivo; set-up: scale not given here; details: inoculated 24 h later, rated after 3-4 days; for Disease Control Rating at 20 ppm: eggplant sprayed with 20 ppm; for Disease Control Rating at 100 ppm: eggplant sprayed with 100 ppm; for Disease Control Rating at 500 ppm: eggplant sprayed with 500 ppm
How it was run: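 Protective test: compound formulations (2:3 acetone:water, 0.5% Tween 20; 500, 100 or 20 ppm) sprayed on 14-18-day-old plants, with spore inoculum (4×10^6 spore/mL) applied a day later. Disease control rated on Botrytis lesions after 3-4 days at 23 °C and 100% humidity.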

[4] = test system: Botrytis cinerea; assay: Vine grey mold (grape berries); assay type: in vivo; details: average of six berries, 7-10 days; for pest or weed control at 50 ppm: grape berries treated with 50 ppm, read-out: % DISEASE CONTROL 50 ppm; for pest or weed control at 200 ppm: grape berries treated with 200 ppm, read-out: % DISEASE CONTROL 200 ppm
How it was run: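 Preventive berry test: compound at 50 or 200 ppm (acetone/water, 0.05% Tween 20) applied one day before inoculation with 10^6 spores/mL Botrytis conidia. After 7-10 days at 20 °C under 12 h light, infected surface area rated; disease control expressed as percent reduction from control mean; repeated-test values averaged.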

T1 sequence (A0A384J5E4 1-300): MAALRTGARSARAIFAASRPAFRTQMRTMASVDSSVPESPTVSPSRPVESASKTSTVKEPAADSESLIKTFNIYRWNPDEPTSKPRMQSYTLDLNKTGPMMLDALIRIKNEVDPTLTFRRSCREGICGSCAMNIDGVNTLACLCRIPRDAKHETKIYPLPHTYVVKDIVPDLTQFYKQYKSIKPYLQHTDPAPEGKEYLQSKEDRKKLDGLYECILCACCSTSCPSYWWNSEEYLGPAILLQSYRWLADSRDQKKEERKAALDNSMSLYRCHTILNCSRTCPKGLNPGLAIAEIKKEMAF
T1 sequence (A0A384J8V8 1-189): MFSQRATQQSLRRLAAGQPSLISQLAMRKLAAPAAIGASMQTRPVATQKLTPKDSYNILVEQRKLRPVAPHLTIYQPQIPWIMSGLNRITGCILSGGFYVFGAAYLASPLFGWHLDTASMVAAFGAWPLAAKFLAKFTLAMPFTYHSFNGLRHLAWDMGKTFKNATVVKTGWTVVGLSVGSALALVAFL
T1 sequence (A0A384JHJ5 1-192): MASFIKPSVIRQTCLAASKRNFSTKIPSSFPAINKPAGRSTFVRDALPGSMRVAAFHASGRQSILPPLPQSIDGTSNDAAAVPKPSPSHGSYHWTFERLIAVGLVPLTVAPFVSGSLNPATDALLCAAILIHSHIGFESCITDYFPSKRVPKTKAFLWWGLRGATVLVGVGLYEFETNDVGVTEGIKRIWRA
T1 sequence (A0A384K456 1-647 partner): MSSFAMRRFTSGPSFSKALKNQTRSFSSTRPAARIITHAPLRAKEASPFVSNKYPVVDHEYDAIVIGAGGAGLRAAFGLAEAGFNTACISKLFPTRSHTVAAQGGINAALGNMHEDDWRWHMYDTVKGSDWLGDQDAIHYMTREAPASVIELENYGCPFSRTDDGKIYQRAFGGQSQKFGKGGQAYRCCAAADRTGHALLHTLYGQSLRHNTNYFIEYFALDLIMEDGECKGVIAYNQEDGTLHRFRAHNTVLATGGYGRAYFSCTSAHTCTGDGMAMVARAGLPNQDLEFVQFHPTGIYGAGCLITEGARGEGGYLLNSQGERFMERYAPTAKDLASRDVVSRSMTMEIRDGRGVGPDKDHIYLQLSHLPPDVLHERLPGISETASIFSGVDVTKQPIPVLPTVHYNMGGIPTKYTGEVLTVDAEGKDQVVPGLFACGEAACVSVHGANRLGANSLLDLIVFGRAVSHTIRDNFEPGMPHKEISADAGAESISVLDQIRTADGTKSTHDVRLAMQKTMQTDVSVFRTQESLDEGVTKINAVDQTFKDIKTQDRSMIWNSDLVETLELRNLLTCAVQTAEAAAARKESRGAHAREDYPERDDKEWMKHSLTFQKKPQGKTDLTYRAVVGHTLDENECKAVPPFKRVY

Row | SMILES | IC50 [1] | Disease Control Rating at 0.5 mg/mL [2] | Disease Control Rating at 20 ppm [3] | Disease Control Rating at 100 ppm [3] | Disease Control Rating at 500 ppm [3] | pest or weed control at 50 ppm [4] | pest or weed control at 200 ppm [4] | Disease Control Rating at 0.02 mg/mL [2] | Disease Control Rating at 0.1 mg/mL [2]
1 | Cn1cc(C(=O)Nc2ccccc2C2CCCC2)c(C(F)(F)Cl)n1 [Example 90, 1H-pyrazole-4-carboxamide, 3-(chlorodifluoromethyl)-N-(2-cyclopentylphenyl)-1-methyl-] | 0.79 µM | 0 | 0 | 0 | 0 | 0% | 33% |  | 
2 | Cc1c(C(=S)Nc2ccccc2[C@@H]2C[C@H]3CC[C@@H]2C3)c(Cl)nn1C (relative stereo) [Example 103, 1H-pyrazole-4-carbothioamide, N-(2-bicyclo[2.2.1]hept-2-ylphenyl)-3-chloro-1,5-dimethyl-, exo-] | 0.52 µM | 0 |  |  | 0 | 5% | 18% |  | 
3 | Cn1nc(C(F)(F)F)c(C(=O)Nc2ccccc2C2CCCCC2)c1Cl [Example 87, 1H-pyrazole-4-carboxamide, 5-chloro-N-(2-cyclohexylphenyl)-1-methyl-3-(trifluoromethyl)-] | 0.059 µM | 2 |  |  | 0 | 61% | 46% |  | 
4 | Cc1nn(C)cc1C(=O)Nc1ccccc1C1CCCCC1 [Example 3, 1H-pyrazole-4-carboxamide, N-(2-cyclohexylphenyl)-1,3-dimethyl-] | 0.027 µM | 0 | 0 | 1 | 2 | 10% | 62% |  | 
5 | Cn1cc(C(=O)Nc2ccccc2[C@@H]2C[C@H]3CC[C@@H]2C3)c(I)n1 (relative stereo) [Example 58, 1H-pyrazole-4-carboxamide, N-(2-bicyclo[2.2.1]hept-2-ylphenyl)-3-iodo-1-methyl-, exo-] | 0.0086 µM | 2 | 0 | 0 | 2 | 51% | 78% |  | 
6 | CC(C)C1=C(c2ccccc2NC(=O)c2cn(C)nc2C(F)(F)F)CCCC1 [Example 128, 1H-pyrazole-4-carboxamide, N-[2-[2-(1-methylethyl)-1-cyclohexen-1-yl]phenyl]-1-methyl-3-(trifluoromethyl)-] | 1.3 µM | 0 | 0 | 0 | 0 | 0% | 0% |  | 
7 | Cn1cc(C(=O)Nc2cc(Cl)ccc2C2CCCCC2)c(C(F)(F)F)n1 [Example 94, 1H-pyrazole-4-carboxamide, N-(5-chloro-2-cyclohexylphenyl)-1-methyl-3-(trifluoromethyl)-] | 0.074 µM | 0 |  |  | 0 | 0% | 0% |  | 
8 | Cn1cc(C(=O)Nc2ccccc2C2=CCOCC2)c(C(F)(F)F)n1 [Example 108, 1H-pyrazole-4-carboxamide, N-[2-(5,6-dihydro-2H-pyran-4-yl)phenyl]-1-methyl-3-(trifluoromethyl)-] | 1.6 µM | 0 |  |  | 0 | 12% | 0% |  | 
9 | CC1CC=C(c2ccccc2NC(=O)c2cn(C)nc2C(F)F)C1 (stereo not shown) [Example 149, 1H-pyrazole-4-carboxamide, N-[2-(4-methyl-1-cyclopenten-1-yl)phenyl]-1-methyl-3-(difluoromethyl)-] | 0.013 µM | 3 | 0 | 0 | 1 | 95% | 100% |  | 
10 | Cn1cc(C(=O)Nc2ccccc2C2CC(C)(C)CC(C)(C)C2)c(C(F)(F)F)n1 [Example 139, 1H-pyrazole-4-carboxamide, 1-methyl-N-[2-(3,3,5,5-tetramethylcyclohexyl)phenyl]-3-(trifluoromethyl)-] | 0.032 µM | 3 | 0 | 0 | 0 | 2% | 1% | 2 | 2
11 | CC1=C(c2ccccc2NC(=O)c2cn(C)nc2C(F)(F)F)CCC1 [Example 137, 1H-pyrazole-4-carboxamide, 1-methyl-N-[2-(2-methyl-1-cyclopenten-1-yl)phenyl]-3-(trifluoromethyl)-] | 0.02 µM | 3 | 1 | 3 | 3 | 83% | 100% | 1 | 2
12 | Cn1cc(C(=O)Nc2ccccc2O[C@@H]2C[C@H]3CC[C@@H]2C3)c(C(F)(F)F)n1 (relative stereo) [Example 81] | 0.38 µM | 3 |  |  | 0 | 0% | 7% | 3 | 3
13 | Cc1c(C(=O)Nc2ccccc2C2CCCCCC2)c(Cl)nn1C [Example 105, 1H-py-razole-4-carboxamide, 3-chloro-N-(2-cycloheptylphenyl)-1,5-dimethyl-] | 0.26 µM | 0 | 0 | 0 | 1 | 6% | 0% |  | 
14 | Cc1c(C(=O)Nc2ccccc2C2CCCC2)c(C(F)(F)F)nn1C [Example 101, 1H-pyrazole-4-carboxamide, N-(2-cyclopentylphenyl)-1,5-dimethyl-3-(trifluoromethyl)-] | 1.4 µM | 3 |  |  | 0 | 10% | 16% | 0 | 1
15 | O=C(Nc1ccccc1C1CCCCC1)c1cn(C(F)F)nc1C(F)F [Example 61, 1H-pyrazole-4-carboxamide, N-(2-cyclohexylphenyl)-1,3-bis(difluoromethyl)-] | 0.19 µM | 0 |  |  | 1 | 0% | 0% |  | 
16 | Cn1cc(C(=O)Nc2ccccc2C2=CCCCC2C(C)(C)C)c(C(F)(F)F)n1 (stereo not shown) [Example 141, 1H-pyrazole-4-carboxamide, N-[2-[6-(1,1-dimethylethyl)-1-cyclohexen-1-yl]phenyl]-1-methyl-3-(trifluoromethyl)-] | 0.049 µM | 3 | 0 | 0 | 1 | 12% | 12% |  | 
17 | Cn1cc(C(=O)Nc2ccccc2C2CCCC2)c(C(F)(F)F)n1 [Example 8, 1H-pyrazole-4-carboxamide, N-(2-cyclopentylphenyl)-1-methyl-3-(trifluoromethyl)-] | 0.016 µM | 0 |  |  | 0 | 37% | 83% |  | 
18 | Cn1cc(C(=O)Nc2ccccc2CC2CCCCCC2)c(C(F)F)n1 [Example 145, 1H-pyrazole-4-carboxamide, 1-methyl-N-[2-(cycloheptylmethyl)-phenyl]-3-(difluoromethyl)-] | 0.025 µM | 3 | 0 | 0 | 0 | 0% | 0% |  | 
